Laboratory results: patent US20200384003A1, “TRITERPENOID-CONTAINING PHARMACEUTICAL COMPOSITION AND USE THEREOF” (SHANGHAI LANMU CHEMICALS CO., LTD., priority 2017, published 2020)

How the values were obtained:
[1] = target: T1, mutated lens protein (αB-crystallin R120G) (Homo sapiens, UniProt P02511, R120G); test: Intracellular mutated lens protein aggregation inhibition experiment in transfected HeLa cells (Example 21); type: cell-based; conditions: 10 μM, treated 3.5 hours, then 6.5 h normal medium, fewer + = better
T1 construct: expressed in transfected cells; host or cells: HeLa
T1 sequence (P02511 1-175 R120G): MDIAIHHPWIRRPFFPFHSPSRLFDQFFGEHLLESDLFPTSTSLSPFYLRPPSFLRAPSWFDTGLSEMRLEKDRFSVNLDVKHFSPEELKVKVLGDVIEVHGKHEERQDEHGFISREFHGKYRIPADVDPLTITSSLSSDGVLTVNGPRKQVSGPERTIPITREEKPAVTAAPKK
Protocol: In this example, apart of the specific compounds obtained in Example 19 and Example 20 were selected for intracellular mutated lens protein (αB-crystallin R120G) aggregation inhibition experiment (experimental method was described in Chinese patent CN201580057679). The aggregation inhibition activities of compound I and compound II in the present invention on lens protein mutants were evaluated to screen a compound which was effective in treating related disease such as cataract.
The tumor cell line HeLa was selected as a host cell transfected with the mutant lens protein (αB-crystallin […]) expression plasmid, the medium was DMEM with […], and the culture conditions were 37° C., saturated humidity and 5% carbon dioxide cell incubator. Mycoplasma was negative. The transfection process is that the appropriate number of HeLa cells were inoculated on the pre-coated slides. When fully adherent cells grew to about 75% cell density, the expression vector was transfected with liposome. After 4 hours of transfection, the medium was changed to normal medium. Then the HeLa cells were cultured in the cell incubator for 13 hours to induce the expression of exogenous mutant lens protein. After changing the medium, the replaced new medium contained various compounds of the formula I and formula II of the present invention to be tested (DMSO was used as solvent in all mother fluid), wherein the final concentration of each compound was 10 μM, the negative control was 1.5% DMSO solvent, and the positive control was lanosterol (10 μM). The HeLa cells were treated with the medium containing the test compound, 1.5% DMSO solvent and lanosterol for 3.5 hours, respectively, and the normal fresh medium containing no DMSO, test compound or lanosterol was exchanged and the cells were cultured for another 6.5 h, then Anti-p62 antibody and DAPI were used for routine cellular immunofluorescence detection. The field of vision of three positions per slide was randomly selected, the ratio of cells containing aggregated crystalline proteins (lens protein aggregates) was calculated, and the effect of each test compound on intracellular aggregation of mutant lens proteins was finally determined, the results were shown in Table 19.

[2] = Pharmacokinetic study, drug in aqueous humor after eye glass cavity injection (Example 5); type: in vivo; conditions: SD rats, 5 μl injected into each glass cavity, detected 10 days after the surgery
Protocol: SD rats (about 10 weeks old, male or female) were anesthetized by intraperitoneal injection of pentobarbital sodium and pupil was dilated, then eye glass cavity injection surgery was performed. All animals were injected with the same kind of drugs in both eyes. The amount of drug injected into each glass cavity was 5 μl, and the number of test animals per drug formulation (Example 1, Example 2 and Comparative Example 1) was four, and the drug metabolism in the aqueous humor was detected 10 days after the surgery.

[3] = test system: diabetic metabolite cataract; test: Therapeutic effect on diabetic metabolite cataract, streptozotocin model (Example 11); type: in vivo, SD rats; conditions: right eye of diabetic rat, pictures before and after 2 months of treatment (FIG. 25-29)
[4] = Heat stability at 80° C. versus 4° C., HPLC and appearance (Example 18); type: physicochemical; conditions: for appearance after heat storage: compared with 4° C.
Protocol: The heatl stabilities of inotodiol and trametenolic acid were tested, and lanosterol was used as a reference at the same time.

| SMILES | Inhibitory effect (percentage of cells containing aggregated proteins) [1] | other results |
| --- | --- | --- |
| C[C@H](C(O)CCC(C)(C)O)[C@H]1CC[C@@]2(C)C3=C(CC[C@]12C)[C@@]1(C)C[C@@H](O)[C@H](O)C(C)(C)C1CC3 (some centres unmarked) [Compound 25] | + (<30% of the cells in the field of vision contained protein aggregates) | – |
| C[C@H](C(O)CC(O)C(C)(C)O)[C@H]1CC[C@@]2(C)C3=C(CC[C@]12C)[C@@]1(C)CC[C@H](O)C(C)(C)C1CC3 (some centres unmarked) [Compound 17] | ++ (>30% and <45% of the cells in the field of vision contained protein aggregates) | – |
| CC(C)=CCC[C@H](C=O)[C@H]1CC[C@@]2(C)C3=C(CC[C@]12C)[C@@]1(C)CCC(=O)C(C)(C)C1CC3 (some centres unmarked) [Compound 5″] | ++ (>30% and <45% of the cells in the field of vision contained protein aggregates) | – |
| C[C@H](C(O)/C=C/C(C)(C)O)[C@H]1CC[C@@]2(C)C3=C(CC[C@]12C)[C@@]1(C)CC[C@H](O)C(C)(C)C1CC3 (some centres unmarked) [Compound 4″] | + (<30% of the cells in the field of vision contained protein aggregates) | – |
| C[C@H](C(O)C/C=C/C(=O)O)[C@H]1CC[C@@]2(C)C3=C(CC[C@]12C)[C@@]1(C)C[C@@H](F)[C@H](O)C(C)(C)C1CC3 (some centres unmarked) [Compound 42] | + (<30% of the cells in the field of vision contained protein aggregates) | – |
| COC(C)(C)C(O)CC(O)[C@@H](C)[C@H]1CC[C@@]2(C)C3=C(CC[C@]12C)[C@@]1(C)CC[C@H](O)C(C)(C)C1CC3 (some centres unmarked) [Compound 8″] | ++ (>30% and <45% of the cells in the field of vision contained protein aggregates) | – |
| CC(C)(O)CCC[C@@H](C(=O)O)[C@H]1CC[C@@]2(C)C3=C(CC[C@]12C)[C@@]1(C)CC[C@H](O)C(C)(C)C1CC3 (some centres unmarked) [Compound 15′] | + (<30% of the cells in the field of vision contained protein aggregates) | – |
| CC(C)=CCCC(C=O)[C@H]1CC[C@@]2(C)C3=C(CC[C@]12C)[C@@]1(C)CC[C@H](O)C(C)(C)C1CC3 (some centres unmarked) [Compound 2″] | ++ (>30% and <45% of the cells in the field of vision contained protein aggregates) | – |
| C[C@H](C(O)CCC(C)(C)O)[C@H]1CC[C@@]2(C)C3=C(CC[C@]12C)[C@@]1(C)C[C@@H](F)[C@H](O)C(C)(C)C1CC3 (some centres unmarked) [Compound 23] | + (<30% of the cells in the field of vision contained protein aggregates) | – |
| C[C@H](C(O)C/C=C/C(=O)O)[C@H]1CC[C@@]2(C)C3=C(CC[C@]12C)[C@@]1(C)CC[C@H](O)C(C)(C)C1CC3 (some centres unmarked) [Compound 34] | + (<30% of the cells in the field of vision contained protein aggregates) | – |
| CC(C)(O)CCC[C@@H](C(=O)O)[C@H]1CC[C@@]2(C)C3=CCC4C(C)(C)[C@@H](O)CC[C@]4(C)C3=CC[C@]12C (some centres unmarked) [Compound 21′] | ++ (>30% and <45% of the cells in the field of vision contained protein aggregates) | – |
| CO[C@H]1CC[C@]2(C)C3=C(CCC2C1(C)C)[C@]1(C)CC[C@H]([C@H](C)C(O)CCC(C)(C)OC)[C@@]1(C)CC3 (some centres unmarked) [Compound 9] | ++ (>30% and <45% of the cells in the field of vision contained protein aggregates) | – |
| CC(=O)[C@@H](C)[C@H]1CC[C@@]2(C)C3=C(CC[C@]12C)[C@@]1(C)CC[C@H](O)C(C)(C)C1CC3 (some centres unmarked) [Compound 6″] | ++ (>30% and <45% of the cells in the field of vision contained protein aggregates) | – |
| C[C@H](C(O)CCC(C)(C)O)[C@H]1CC[C@@]2(C)C3=C(CC[C@]12C)[C@@]1(C)C[C@@H](F)[C@@H](O)C(C)(C)C1CC3 (some centres unmarked) [Compound 24] | + (<30% of the cells in the field of vision contained protein aggregates) | – |
| C[C@H](C(O)C/C=N/O)[C@H]1CC[C@@]2(C)C3=C(CC[C@]12C)[C@@]1(C)CC[C@H](O)C(C)(C)C1CC3 (some centres unmarked) [Compound 5] | + (<30% of the cells in the field of vision contained protein aggregates) | – |
| CC(C)(O)C(=O)CC[C@@H](C(=O)O)[C@H]1CC[C@@]2(C)C3=C(CC[C@]12C)[C@@]1(C)CC[C@H](O)C(C)(C)C1CC3 (some centres unmarked) [Compound 20′] | ++ (>30% and <45% of the cells in the field of vision contained protein aggregates) | – |
| C=C(C)C(=O)CC(O)C(C)[C@H]1CC[C@@]2(C)C3=C(CC[C@]12C)[C@@]1(C)CC[C@H](O)C(C)(C)C1CC3 (some centres unmarked) [Compound 17″] | ++ (>30% and <45% of the cells in the field of vision contained protein aggregates) | – |
| C/C(=C\CC(O)[C@@H](C)[C@H]1CC[C@@]2(C)C3=C(CC[C@]12C)[C@@]1(C)CC[C@H](O)C(C)(C)C1CC3)C(=O)O (some centres unmarked) [Compound 27] | + (<30% of the cells in the field of vision contained protein aggregates) | – |
| C[C@H](C(O)CC(=O)C(C)(C)O)[C@H]1CC[C@@]2(C)C3=C(CC[C@]12C)[C@@]1(C)CC[C@H](O)C(C)(C)C1CC3 (some centres unmarked) [Compound 20] | ++ (>30% and <45% of the cells in the field of vision contained protein aggregates) | – |
| C[C@H](C(O)CCC(C)(C)O)[C@H]1CC[C@@]2(C)C3=CCC4C(C)(C)[C@@H](O)CC[C@]4(C)C3=CC[C@]12C (some centres unmarked) [Compound 21] | + (<30% of the cells in the field of vision contained protein aggregates) | – |
| CC(=O)O[C@H]1CC[C@]2(C)C3=C(CCC2C1(C)C)[C@]1(C)CC[C@H]([C@H](C)C(O)CC2OC2(C)C)[C@@]1(C)CC3 (some centres unmarked) [Compound 10] | + (<30% of the cells in the field of vision contained protein aggregates) | – |
| C[C@H](C(O)CCC(C)(C)O)[C@H]1CC[C@@]2(C)C3=C(CC[C@]12C)[C@@]1(C)CC[C@H](O)C(C)(C)C1CC3 (some centres unmarked) [Compound 15] | + (<30% of the cells in the field of vision contained protein aggregates) | – |
| C=C(C)C(=O)CC[C@@H](C(=O)O)[C@H]1CC[C@@]2(C)C3=C(CC[C@]12C)[C@@]1(C)CC[C@H](O)C(C)(C)C1CC3 (some centres unmarked) [Compound 7″] | ++ (>30% and <45% of the cells in the field of vision contained protein aggregates) | – |
| C[C@H](C(O)CC(Br)C(C)(C)O)[C@H]1CC[C@@]2(C)C3=C(CC[C@]12C)[C@@]1(C)CC[C@H](O)C(C)(C)C1CC3 (some centres unmarked) [Compound 13] | ++ (>30% and <45% of the cells in the field of vision contained protein aggregates) | – |
| C/C(=C\CC(O)[C@@H](C)[C@H]1CC[C@@]2(C)C3=C(CC[C@]12C)[C@@]1(C)CC[C@H](O)C(C)(C)C1CC3)CO (some centres unmarked) [Compound 32] | + (<30% of the cells in the field of vision contained protein aggregates) | – |
| CC(C)=CCC[C@@H](C(=O)O)[C@H]1CC[C@@]2(C)C3=C(CC[C@]12C)[C@@]1(C)CC[C@H](O)C(C)(C)C1CC3 (some centres unmarked) [Trametenolic acid, trametenolic acid] | + (<30% of the cells in the field of vision contained protein aggregates) | decrease of drug concentration in aqueous humor compared with initial concentration immediately after injection [2]: 8%±1.5%; turbid area of lens / course of cataract after administration [3]: reduced in a large extent; appearance after heat storage ([4]; 80° C. for 1 week): did not change; purity after heat storage ([4]; 80° C. for 2 weeks): above 93%; appearance after heat storage ([4]; 80° C. for 2 weeks): no significant change in appearance and purity; content after heat storage ([4]; 80° C. for 1 day, HPLC): 97%; content after heat storage ([4]; 80° C. for 2 day, HPLC): 96%; content after heat storage ([4]; 80° C. for 3 day, HPLC): 96%; initial experiment purity ([4]; stored at 4° C., HPLC): 98% |
